These results are taken from ChEMBL document CHEMBL1154462, “Synthesis and in vitro anti-bacterial evaluation of tetracyclic-ortho-fused 4H-naphtho[1',2'-5,6]pyrano[3,4-d](1,2,3)selenadiazole and its derivatives” (2008).

Common to all, as to type: functional
The subject of one experiment is Staphylococcus aureus. Nature of the experiment: Antibacterial activity against Staphylococcus aureus isolate by agar cup method.
The test system of the next experiment is Bacillus subtilis. Description: Antibacterial activity against Bacillus subtilis isolate by agar cup method.
Another experiment concerns Escherichia coli. Nature of the experiment: Antibacterial activity against Escherichia coli isolate by agar cup method.
The subject of another experiment is Pseudomonas aeruginosa. Description: Antibacterial activity against Pseudomonas aeruginosa isolate by agar cup method.

Structures are written as SMILES. ≈ marks a conversion by molar mass, not a printed value.

On to `Brc1cccc2c3c(ccc12)OCc1[se]nnc1-3`, for which the MIC turned out to be 50 µg/mL (≈ 137 µM) with Staphylococcus aureus, 100 µg/mL (≈ 273 µM) in the experiment on Bacillus subtilis, 250 µg/mL (≈ 683 µM) against Escherichia coli and 1000 µg/mL (≈ 2730 µM) against Pseudomonas aeruginosa.
Take `Brc1ccc2c3c(ccc2c1)OCc1[se]nnc1-3`: the MIC in the experiment with Staphylococcus aureus amounted to 50 µg/mL (≈ 137 µM); in the experiment on Bacillus subtilis, 100 µg/mL (≈ 273 µM); in the experiment on Escherichia coli, 50 µg/mL (≈ 137 µM); against Pseudomonas aeruginosa it was 500 µg/mL (≈ 1370 µM).
Consider `CC1Oc2ccc3ccccc3c2-c2nn[se]c21` (stereo not given), for which the MIC came to 250 µg/mL (≈ 830 µM) against Staphylococcus aureus, 250 µg/mL (≈ 830 µM) in the experiment on Bacillus subtilis, 500 µg/mL (≈ 1660 µM) in the experiment with Escherichia coli and 1000 µg/mL (≈ 3320 µM) against Pseudomonas aeruginosa.
For the molecule `CC1Oc2ccc3cc(Br)ccc3c2-c2nn[se]c21` (stereo not given), the MIC in the experiment with Staphylococcus aureus is 500 µg/mL (≈ 1320 µM); with Bacillus subtilis, 50 µg/mL (≈ 132 µM); against Escherichia coli it was 500 µg/mL (≈ 1320 µM); in the experiment on Pseudomonas aeruginosa, 1000 µg/mL (≈ 2630 µM).
Consider `c1ccc2c3c(ccc2c1)OCc1[se]nnc1-3`, for which the minimum inhibitory concentration (MIC) in the experiment with Staphylococcus aureus was found to be 250 µg/mL (≈ 871 µM); against Bacillus subtilis, 250 µg/mL (≈ 871 µM); in the experiment with Escherichia coli, 250 µg/mL (≈ 871 µM); in the experiment with Pseudomonas aeruginosa, 1000 µg/mL (≈ 3480 µM).
